What was measured:
[1] = tested on: A. baumannii (ATCC 15151); experiment: MIC against A. baumannii; format: cell-based; conditions: Acinetobacter baumannii, ATCC15151
Method: TABLE 28 details the individual MIC values of compounds 1, 7, 8, 9, 10, 11, PMB, PME, and light against A. baumannii.
(§1) The MICs of PME and compounds 8-11 were determined against A. baumannii (ATCC 15151). […] After incubating the cells with PME, a compound (5 μM) was added, and the samples were further incubated at 37° C. At specific time points, samples were taken and diluted ten-fold in media. Ten microliters of each dilution was then drip-streaked onto an agar plate and incubated overnight at 37° C. Colony counts were then performed, and the CFU/mL were calculated.

[2] = tested on: P. aeruginosa; experiment: Cell killing with compounds and PME at fixed concentrations, with and without white light; format: cell-based; conditions: for Co-treatment with PME: log reduction in the CFU/mL compared to PME alone: 20 μM compound and 0.1 μg/mL PME
Method: FIG. 26 is an example of the treatment of P. aeruginosa with compound 1 and PME at fixed concentrations.
P. aeruginosa cells were also treated with white light upon being incubated with compound 1 for different durations of time. In a 12×75 mm borosilicate glass culture tube, 1 mL of cell suspension was added. PME was added to the cells, and the samples were mixed using a vortex mixer. The resulting samples were incubated for 1.5 hours at 37° C. on a rotary shaking incubator at 100 rpm. Compound 1 was then added, and the samples were incubated for 30 minutes at 37° C. on a rotary shaking incubator at 100 rpm. The samples were then irradiated with white light using a Lumacare™ LC-122 for 2 minutes (irradiation λ1) and incubated overnight at 37° C. The samples were irradiated again with white light using a Lumacare™ LC-122 for 2 minutes (irradiation λ2). Ten-fold dilutions were made of each sample, and 10 μL of each dilution was drip-streaked onto an agar plate. The samples were incubated overnight at 37° C., and colony counts were performed to calculate CFU/mL.
FIG. 55 is an illustrative example of the treatment of P. aeruginosa with compound 1, PME, co-treatment with compound 1 and PME, and co-treatment with compound 1, PME, and light (λ1 and λ2) at fixed concentrations.

[3] = tested on: A. baumannii; experiment: Resensitization to antibiotics (log reduction, TABLE 29); format: cell-based
[4] = tested on: CRE; experiment: as above; format: cell-based
Method: (§2) In a 96-well microtiter plate, two-fold dilutions were made of each drug (starting with 100 μM) in 100 μL of a cell suspension in TSB. The resulting samples were incubated overnight at 37° C. on a rotary shaking incubator at 100 rpm. The samples were then visually inspected for turbidity. A 20% well volume of MTT reagent (5 mg/mL) was subsequently added, and the samples were incubated for about 20 minutes.

[5] = tested on: VRE; experiment: as above; format: cell-based, Enterococcus faecalis; conditions: compound 7.5 μM; Norfloxacin ([…])
Method: as §2

[6] = tested on: A. baumannii (ATCC 15151); experiment: Time course of colony counts with compounds and PME or PMB; format: cell-based; conditions: FIG. 51
Method: as §1

[7] = tested on: MRSA isolates (S. aureus ATCC 33591, BAA-44, BAA-1707, BAA-1717, BAA-1720, BAA-1747, BAA-1754, BAA-1761, BAA-1763, BAA-1764, BAA-1766); experiment: Combination effects of compounds 7-11 and antibiotics on MRSA isolates (turbidity); format: cell-based
Text: Inhibition resulting from co-treatment of a broth suspension with a compound of the invention and an antibiotic was compared to broth suspensions subjected to each individual treatment. A visual observation of inhibition with the unaided eye upon co-treatment of the broth suspensions, based on turbidity, was considered synergistic.
Exceptions to reading complete inhibition of growth included Gram-positive cocci. For Gram-positive cocci, trailing growth was observed. For these species, the MICs were read at the first spot where trailing was observed, and tiny buttons of growth were ignored. […]
Two-fold dilutions of the antibiotics were prepared in a liquid growth medium dispensed in test tubes. […] The antibiotic-containing tubes were inoculated with a standard bacterial suspension of 5×10^5 CFU/mL. Following an overnight incubation (16-20 hrs) at 35±2° C. under ambient air, the tubes were examined for visible bacterial growth based on turbidity. The lowest concentration of antibiotic that prevented growth was determined to be the MIC. An incubation time of 24 hrs was used to determine the MICs of oxacillin and vancomycin.

[8] = tested on: Klebsiella pneumoniae (CRE, ATCC BAA-1705); experiment: Time-dependent colony counts of CRE with compounds and PME; format: cell-based; conditions: PME 0.2 μg/mL, compound 20 μM; FIGS. 48, 49
Method: The MICs of PME and compounds 8-11 were determined against Klebsiella pneumoniae (CRE, ATCC BAA-1705). […] […] At specific time points, the samples were taken and diluted ten-fold in media. Ten microliters of each dilution was then drip-streaked onto an agar plate and incubated overnight at 37° C. Colony counts were then performed and the CFU/mL were calculated.

[9] = compound 20 μM, PMB (0.2 μg/mL)

Clc1ccc(/C=C/c2[nH]c3ccccc3c2/C=C/c2ccc(Cl)cc2)cc1 [Compound 1]
MIC [1]: > 100 µM
Co-treatment with PME: log reduction in the CFU/mL compared to PME alone [2]: 2-log reduction
Co-treatment with PME: log reduction in the CFU/mL compared to PME alone ([2]; listed as compound 1): ~2 log reduction
reduction in the CFU/mL compared to co-treatment with compound 1 and PME ([2]; additional irradiation after an overnight incubation (λ2), FIG. 55): negligible reduction
log reduction in the CFU/mL compared to co-treatment with compound 1 and PME ([2]; light immediately after a 30 minute incubation with compound 1 (λ1), FIG. 55): ~8 log
PDT ([2]; with white light, TABLE 19): ~7-log reduction
Log Reduction ([3]; compound 5 μM, PMB (0.5 μg/mL)): 8
Log Reduction ([3]; compound 5 μM, PME (0.2 μg/mL)): 8
Log Reduction ([4]; compound 5 μM, PMB (0.2 μg/mL) + Light (2 min)): 3
Log Reduction ([4]; compound 10 μM, PME (0.1 μg/mL)): 9
Log Reduction ([4]; compound 10 μM, PME (0.2 μg/mL) + Light (2 min)): 9

Brc1ccc(/N=N/c2c[nH]c3ccccc23)cc1 [Compound 8]
MIC [1]: > 100 µM
Log Reduction [5]: 4-5
A. baumannii colony populations on treatment with compound and PME or PMB [6]: reduced to sterility
Co-treatment with PME: log reduction in the CFU/mL compared to PME alone [2]: 4-log reduction
Co-treatment with PME: log reduction in the CFU/mL compared to PME alone ([2]; listed as compound 8): ~4 log reduction
combination effect with Gentamycin ([7]; MRSA ATCC 33591): No Synergy
combination effect with Norfloxacin ([7]; MRSA ATCC 33591): No Synergy
combination effect with Oxacillin ([7]; MRSA ATCC 33591): No Synergy
combination effect with Tetracycline ([7]; MRSA ATCC 33591): No Synergy
combination effect with Vancomycin ([7]; MRSA ATCC 33591): Susceptible
combination effect with Norfloxacin ([7]; MRSA ATCC BAA-44): No Synergy
combination effect with Oxacillin ([7]; MRSA ATCC BAA-44): No Synergy
combination effect with Tetracycline ([7]; MRSA ATCC BAA-44): Susceptible
combination effect with Vancomycin ([7]; MRSA ATCC BAA-44): Susceptible
combination effect with Gentamycin ([7]; MRSA ATCC BAA-1707): Susceptible
combination effect with Norfloxacin ([7]; MRSA ATCC BAA-1707): Susceptible
combination effect with Oxacillin ([7]; MRSA ATCC BAA-1707): Susceptible
combination effect with Tetracycline ([7]; MRSA ATCC BAA-1707): No Synergy
combination effect with Vancomycin ([7]; MRSA ATCC BAA-1707): Susceptible
combination effect with Gentamycin ([7]; MRSA ATCC BAA-1717): Susceptible
combination effect with Norfloxacin ([7]; MRSA ATCC BAA-1717): Susceptible
combination effect with Oxacillin ([7]; MRSA ATCC BAA-1717): Synergy
combination effect with Tetracycline ([7]; MRSA ATCC BAA-1717): Susceptible
combination effect with Vancomycin ([7]; MRSA ATCC BAA-1717): Susceptible
combination effect with Gentamycin ([7]; MRSA ATCC BAA-1720): Susceptible
combination effect with Norfloxacin ([7]; MRSA ATCC BAA-1720): No Synergy
combination effect with Oxacillin ([7]; MRSA ATCC BAA-1720): Synergy
combination effect with Tetracycline ([7]; MRSA ATCC BAA-1720): Susceptible
combination effect with Vancomycin ([7]; MRSA ATCC BAA-1720): Susceptible
combination effect with Gentamycin ([7]; MRSA ATCC BAA-1747): Susceptible
combination effect with Norfloxacin ([7]; MRSA ATCC BAA-1747): Susceptible
combination effect with Oxacillin ([7]; MRSA ATCC BAA-1747): Susceptible
combination effect with Tetracycline ([7]; MRSA ATCC BAA-1747): Susceptible
combination effect with Vancomycin ([7]; MRSA ATCC BAA-1747): Susceptible
combination effect with Gentamycin ([7]; MRSA ATCC BAA-1754): Susceptible
combination effect with Norfloxacin ([7]; MRSA ATCC BAA-1754): Susceptible
combination effect with Oxacillin ([7]; MRSA ATCC BAA-1754): Synergy
combination effect with Tetracycline ([7]; MRSA ATCC BAA-1754): Susceptible
combination effect with Vancomycin ([7]; MRSA ATCC BAA-1754): Susceptible
combination effect with Gentamycin ([7]; MRSA ATCC BAA-1761): Susceptible
combination effect with Norfloxacin ([7]; MRSA ATCC BAA-1761): No Synergy
combination effect with Oxacillin ([7]; MRSA ATCC BAA-1761): Susceptible
combination effect with Tetracycline ([7]; MRSA ATCC BAA-1761): Susceptible
combination effect with Vancomycin ([7]; MRSA ATCC BAA-1761): Susceptible
combination effect with Gentamycin ([7]; MRSA ATCC BAA-1763): Susceptible
combination effect with Norfloxacin ([7]; MRSA ATCC BAA-1763): No Synergy
combination effect with Oxacillin ([7]; MRSA ATCC BAA-1763): Synergy
combination effect with Tetracycline ([7]; MRSA ATCC BAA-1763): Susceptible
combination effect with Vancomycin ([7]; MRSA ATCC BAA-1763): Susceptible
combination effect with Gentamycin ([7]; MRSA ATCC BAA-1764): Susceptible
combination effect with Norfloxacin ([7]; MRSA ATCC BAA-1764): Susceptible
combination effect with Oxacillin ([7]; MRSA ATCC BAA-1764): Synergy
combination effect with Tetracycline ([7]; MRSA ATCC BAA-1764): Susceptible
combination effect with Vancomycin ([7]; MRSA ATCC BAA-1764): Susceptible
combination effect with Gentamycin ([7]; MRSA ATCC BAA-1766): Susceptible
combination effect with Norfloxacin ([7]; MRSA ATCC BAA-1766): Susceptible
combination effect with Oxacillin ([7]; MRSA ATCC BAA-1766): Synergy
combination effect with Tetracycline ([7]; MRSA ATCC BAA-1766): Susceptible
combination effect with Vancomycin ([7]; MRSA ATCC BAA-1766): Susceptible
Log Reduction ([3]; compound 5 μM, PME (0.05 μg/mL)): 9
Log Reduction [3, 9]: 9
CRE colony populations on simultaneous treatment with PME [8]: reduced the CRE colony populations to sterility
Log Reduction [4, 9]: 6
Log Reduction ([4]; compound 20 μM, PME (0.2 μg/mL)): 6

Source: patent publication US9834514B2, “Antibiotic sensitivity-restoring and photosensitive agents” (New Mexico Tech Research Foundation, priority 2015, dated 2017)
